Laboratory results taken from PubChem BioAssay AID180 (DTP/NCI, 2004).
Several values for one entry are separate records, joined by “and”; a condition that tells them apart may be missing. Equal entries are not always repeated.

Test system: BDF1 mice, Adenocarcinoma 755 s.c., tumor weight T/C
Assay: NCI In Vivo Anticancer Drug Screen. Data for tumor model Adenocarcinoma 755 (subcutaneous) in B6D2F1 (BDF1) mice
Conditions: endpoint: mean tumor weight, schedule: Q01DX011 (ip), higher = larger tumour
Summary of the method: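 Tumor-bearing mice receive test compound while controls get vehicle alone. Antitumor effect is scored from survival or tumor dimensions as a T/C quotient.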

[1] = dose: 400.0 mg/kg/injection, vehicle: carboxymethylcellulose (CMC)
[2] = dose: 3.1 mg/kg/injection, vehicle: methylcellulose (MC)
[3] = dose: 6.2 mg/kg/injection, vehicle: methylcellulose (MC)
[4] = dose: 12.5 mg/kg/injection, vehicle: methylcellulose (MC)
[5] = dose: 25.0 mg/kg/injection, vehicle: methylcellulose (MC)

C[C@@H]1CN(C(=O)CCBr)[C@@H](C)CN1C(=O)CCBr was tested, and the T/C (dose: 113.0 mg/kg/injection, vehicle: carboxymethylcellulose (CMC)) was 50 % of control, the T/C (dose: 225.0 mg/kg/injection, vehicle: carboxymethylcellulose (CMC)) was 48 % of control and the T/C (dose: 450.0 mg/kg/injection, vehicle: carboxymethylcellulose (CMC)) was 57 % of control.

For C=CC1OCCN1CC (stereo not drawn), the T/C (dose: 12.5 mg/kg/injection, vehicle: other) was 106 % of control and the T/C (dose: 50.0 mg/kg/injection, vehicle: other) was 87 % of control.

For C/C(=N\NC(=O)c1ccncc1)c1ccc(Cl)cc1Cl, the T/C (dose: 30.0 mg/kg/injection, vehicle: methylcellulose (MC)) was 41 % of control and the T/C (dose: 60.0 mg/kg/injection, vehicle: methylcellulose (MC)) was 58 % of control.

For O=C1C(Cl)=C(Cl)C(=O)C2=C1C1c3ccccc3C2c2ccccc21, the T/C (dose: 37.0 mg/kg/injection, vehicle: carboxymethylcellulose (CMC)) was 83 % of control, the T/C (dose: 37.5 mg/kg/injection, vehicle: carboxymethylcellulose (CMC)) was 117 % of control and the T/C (dose: 75.0 mg/kg/injection, vehicle: carboxymethylcellulose (CMC)) was 113 % of control and 114 % of control. The T/C (dose: 150.0 mg/kg/injection, vehicle: carboxymethylcellulose (CMC)) was 89 % of control and 84 % of control, the T/C (dose: 300.0 mg/kg/injection, vehicle: carboxymethylcellulose (CMC)) was 83 % of control and the T/C (dose: 325.0 mg/kg/injection, vehicle: carboxymethylcellulose (CMC)) was 41 % of control. For the same compound, the T/C [1] was 33 % of control and the T/C (dose: 600.0 mg/kg/injection, vehicle: carboxymethylcellulose (CMC)) was 15 % of control.

With Cc1nc(C(N)=O)nc2ccccc12 the T/C (dose: 31.25 mg/kg/injection, vehicle: methylcellulose (MC)) was 102 % of control, the T/C (dose: 50.0 mg/kg/injection, vehicle: carboxymethylcellulose (CMC)) was 99 % of control and the T/C (dose: 100.0 mg/kg/injection, vehicle: carboxymethylcellulose (CMC)) was 80 % of control. The T/C (dose: 200.0 mg/kg/injection, vehicle: carboxymethylcellulose (CMC)) was 58 % of control and the T/C [1] was 32 % of control.

In the case of CCCCN(C)N=Nc1ccc(CCC(=O)OCC)cc1, the T/C (dose: 62.5 mg/kg/injection, vehicle: saline) is reported as 95 % of control, the T/C (dose: 125.0 mg/kg/injection, vehicle: saline) is reported as 38 % of control and the T/C (dose: 250.0 mg/kg/injection, vehicle: saline) is reported as 80 % of control.

For Nc1nc2nc(/N=N/SCCC(=O)O)[nH]c2c(=O)[nH]1, the T/C (dose: 37.5 mg/kg/injection, vehicle: methylcellulose (MC)) was 54 % of control and the T/C (dose: 75.0 mg/kg/injection, vehicle: methylcellulose (MC)) was 45 % of control.

With CC(=O)C(CCC(=O)O)(CCC(=O)O)c1ccccc1 the T/C (dose: 30.0 mg/kg/injection, vehicle: other) was 87 % of control, the T/C (dose: 60.0 mg/kg/injection, vehicle: other) was 71 % of control and the T/C (dose: 120.0 mg/kg/injection, vehicle: other) was 117 % of control. The T/C (dose: 240.0 mg/kg/injection, vehicle: other) was 97 % of control.

Nc1nc(SCc2ccc(F)cc2)c2ncn(C3OC(CO)C(O)C3O)c2n1 (stereo not drawn) was tested, and the T/C [2] was 86 % of control, the T/C [3] was 59 % of control and the T/C [4] was 19 % of control. For the same compound, the T/C [5] was 11 % of control.

For Nc1nc(SCc2cccc(Br)c2)c2ncn(C3OC(CO)C(O)C3O)c2n1 (stereo not drawn), the T/C (dose: 1.5 mg/kg/injection, vehicle: methylcellulose (MC)) was 84 % of control, the T/C [2] was 62 % of control and the T/C [3] was 12 % of control and 24 % of control. The T/C [4] was 1 % of control and the T/C [5] was 2 % of control.
